These results are taken from ChEMBL document CHEMBL5634123, “Design and synthesis of 1H-benzo[d]imidazole selective HDAC6 inhibitors with potential therapy for multiple myeloma” (Eur J Med Chem, 2023).

Structures are written as SMILES.

The nature of data set [1]: Toxicity in Balb/c nude mouse xenografted with human RPMI-8226 cells assessed as adverse effect on serum ALT level at 10 to 40 mg/kg, po qd for 21 days administered consecutively. The conditions noted are these: in vivo, 504 h, dose 10-40 mg/kg, time 21 day. In kind it is organism-based.
The test system of data set [2] is RPMI-8226. The data set is described as follows: Induction of cell cycle arrest at G1 phase in human RPMI-8226 cells at 0.5 uM incubated for 24 hrs by PI staining based flow cytometry (reference value: 19.2 %). It counts as functional. Background: Flow cytometry measures light scatter and fluorescence of single cells or particles in a stream.
The subject of data set [3] is RPMI-8226. Nature of the data set: Induction of cell cycle arrest at G2 phase in human RPMI-8226 cells at 2.5 uM incubated for 24 hrs by PI staining based flow cytometry (reference value: 18.3 %). It counts as functional.

Take `Cn1c([C@@H](Cc2ccccc2)NCc2ccccc2)nc2cc(C(=O)NO)ccc21`: the Activity result was “Non-Toxic” in data set [1], 24.5% in the data set with RPMI-8226 [2] and 25.6% with RPMI-8226 [3].
